Test results taken from patent publication US11584747B2, “Substituted pyridopyrimidinonyl compounds useful as T cell activators” (BRISTOL-MYERS SQUIBB COMPANY, priority 2019, dated 2023).
Like-named read-outs stand apart in the source and are kept apart here.

Tests used:
human DGKζ = human DGKζ (Homo sapiens (Human), UniProt Q13574); assay: DGKζ LIPGLO assay (extruded liposome substrate, ADP-Glo luminescence); type: biochemical; conditions: liposome (LIPGLO) assay; read-out: DGK zeta (liposome assay) IC50
whole blood (pERK) = assay: pERK Whole Blood; type: cell-based
[1] = system: human venous whole blood (IFN-γ); assay: Human whole blood IFN-γ assay; type: cell-based; conditions: human whole blood, anti-CD3 plus anti-CD28 stimulation, 24 hours, read-out: IFN-γ Whole Blood EC50
Protocol: Human venous whole blood (22.5 μL per well), obtained from healthy donors, was pre-treated with compounds for one hour at 37° C. in a humidified 95% air/5% CO2 incubator. The blood was stimulated with 2.5 μL anti-human CD3 and anti-CD28 mAb at a final concentration of 1 μg/mL each for 24 hours at 37° C. IFN-γ in the supernatants was measured using AlphLISA kit (Cat #AL217).

human DGKα = human DGKα (Homo sapiens (Human), UniProt P23743); assay: DGKα ADPGLO assay (detergent/lipid micelle substrate); type: biochemical; conditions: ADPGLO assay; read-out: DGK alpha ADPGLO IC50
Protocol: DGK Alpha ADPGLO (Truncated) IC50 (uM)
The detergent/lipid micelle was prepared by combining 15 g phosphatidylserine (Avanti 840035P) and 1 g diacylglycerol (8008110) and dissolving into 150 mL chloroform in a 2 L round bottom flask. Chloroform was removed under high vacuum by rotary evaporation. […] The lipid/detergent solution was split into 5 mL aliquots and stored at −80° C.

Chain of human DGKζ (Q13574 other isoform, or with tags, fused parts or gaps): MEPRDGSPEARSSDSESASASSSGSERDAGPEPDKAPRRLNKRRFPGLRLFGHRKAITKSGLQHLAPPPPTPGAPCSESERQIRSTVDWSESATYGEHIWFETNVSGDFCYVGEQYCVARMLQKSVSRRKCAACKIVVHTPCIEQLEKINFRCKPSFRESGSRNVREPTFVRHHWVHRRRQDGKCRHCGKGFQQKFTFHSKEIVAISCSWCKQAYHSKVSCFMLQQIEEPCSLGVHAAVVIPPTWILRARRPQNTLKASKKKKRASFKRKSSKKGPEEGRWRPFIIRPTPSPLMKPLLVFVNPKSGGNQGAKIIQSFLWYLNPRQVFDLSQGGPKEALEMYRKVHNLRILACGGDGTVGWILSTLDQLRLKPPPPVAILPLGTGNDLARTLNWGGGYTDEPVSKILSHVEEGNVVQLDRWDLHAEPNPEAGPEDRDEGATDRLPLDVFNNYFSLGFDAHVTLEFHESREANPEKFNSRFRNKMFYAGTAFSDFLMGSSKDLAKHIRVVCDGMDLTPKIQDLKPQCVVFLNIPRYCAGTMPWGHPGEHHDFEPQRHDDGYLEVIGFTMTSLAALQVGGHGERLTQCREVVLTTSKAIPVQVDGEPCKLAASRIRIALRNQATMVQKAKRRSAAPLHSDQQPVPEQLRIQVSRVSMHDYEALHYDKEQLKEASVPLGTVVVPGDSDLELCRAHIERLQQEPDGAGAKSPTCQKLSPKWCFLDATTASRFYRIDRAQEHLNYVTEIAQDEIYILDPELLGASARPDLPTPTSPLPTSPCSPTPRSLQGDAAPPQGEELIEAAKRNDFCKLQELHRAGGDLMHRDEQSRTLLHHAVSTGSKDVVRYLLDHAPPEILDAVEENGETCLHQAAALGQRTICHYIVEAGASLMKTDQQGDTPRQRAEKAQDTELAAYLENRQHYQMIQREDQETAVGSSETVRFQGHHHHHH
Chain of human DGKα (P23743 whole entry, looked up, the tested form may be a part): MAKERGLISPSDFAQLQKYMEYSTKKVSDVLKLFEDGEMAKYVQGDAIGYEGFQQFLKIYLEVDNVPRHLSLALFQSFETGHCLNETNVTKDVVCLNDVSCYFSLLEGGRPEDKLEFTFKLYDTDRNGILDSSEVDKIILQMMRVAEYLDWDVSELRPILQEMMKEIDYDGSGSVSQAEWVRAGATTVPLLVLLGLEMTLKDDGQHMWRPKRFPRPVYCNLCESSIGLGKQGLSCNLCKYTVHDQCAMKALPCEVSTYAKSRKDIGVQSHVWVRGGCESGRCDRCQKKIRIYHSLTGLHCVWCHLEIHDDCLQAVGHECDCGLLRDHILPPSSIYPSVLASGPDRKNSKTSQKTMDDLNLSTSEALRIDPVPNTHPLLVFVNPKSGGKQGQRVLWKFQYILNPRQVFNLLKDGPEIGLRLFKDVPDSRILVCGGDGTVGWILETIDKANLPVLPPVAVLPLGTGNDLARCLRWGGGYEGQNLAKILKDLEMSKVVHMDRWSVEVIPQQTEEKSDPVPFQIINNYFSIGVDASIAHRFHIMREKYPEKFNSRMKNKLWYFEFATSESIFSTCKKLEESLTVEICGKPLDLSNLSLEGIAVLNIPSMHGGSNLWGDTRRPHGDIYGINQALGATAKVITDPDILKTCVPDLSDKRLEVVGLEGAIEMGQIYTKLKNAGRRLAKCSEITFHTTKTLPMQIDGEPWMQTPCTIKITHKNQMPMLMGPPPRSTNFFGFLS

IC50 (human DGKζ) [nM] | EC50 (whole blood (pERK)) [nM] | EC50 [1] [nM] | IC50 (human DGKα) [nM] | EC50 ([1]; Homo sapiens, 24 h) [nM] | SMILES
43 | 240 | 130 | 12 | – | CC(c1ccc(CN2CCOC(C)(C)C2)cc1)N1C[C@H](C)N(c2nc(=O)n(C)c3ccc(C#N)nc23)C[C@H]1C (single isomer, unassigned) [Example 385]
250000 | 20000 | – | 250000 | 20000 | CC[C@H]1CN(C(C)c2ccc(C(F)(F)F)cc2)[C@H](CC)CN1c1nc(=O)n(C)c2ccc(OCCN(C)C)nc12 (stereo partly drawn) [Example 431, 4-((2S,5R)-2,5-diethyl-4-(1-(4-(trifluoromethyl)phenyl)ethyl)piperazin-1-yl)-6-(2-(dimethylamino)ethoxy)-1-methylpyrido[3,2-d]pyrimidin-2(1H)-one]
14 | 110 | 16 | 12 | – | CCC(c1ccc(OC)cc1)N1C[C@H](C)N(c2nc(=O)n(C)c3ccc(C#N)nc23)C[C@H]1CC (stereo partly drawn) [Example 304, 4-((2S,5R)-5-ethyl-4-(1-(4-methoxyphenyl)propyl)-2-methylpiperazin-1-yl)-1-methyl-2-oxo-1,2-dihydropyrido[3,2-d]pyrimidine-6-carbonitrile]
32 | 24 | – | 17 | 160 | CCC(c1nc(C2CC2)no1)N1C[C@H](CC)N(c2nc(=O)n(C)c3ccc(C#N)nc23)C[C@H]1CC (stereo partly drawn) [Example 363, 4-((2S,5R)-4-(1-(3-cyclopropyl-1,2,4-oxadiazol-5-yl)propyl)-2,5-diethylpiperazin-1-yl)-1-methyl-2-oxo-1,2-dihydropyrido[3,2-d]pyrimidine-6-carbonitrile]
180 | 20000 | 40 | 97 | – | CC(c1ccc(CN2CCC(F)(F)CC2)cc1)N1C[C@H](C)N(c2nc(=O)n(C)c3ccc(C#N)nc23)C[C@H]1C (stereo partly drawn) [Example 390, 4-((2S,5R)-4-(1-(4-((4,4-difluoropiperidin-1-yl)methyl)phenyl)ethyl)-2,5-dimethylpiperazin-1-yl)-1-methyl-2-oxo-1,2-dihydropyrido[3,2-d]pyrimidine-6-carbonitrile]
100 | 3320 | – | 13 | 190 | CC[C@H]1CN(C(c2ccc(F)cc2)c2noc(C3CC3)n2)[C@H](CC)CN1c1nc(=O)n(C)c2ccc(C#N)nc12 (single isomer, unassigned) [Example 371]
1340 | 1130 | 720 | 2020 | – | CC(c1ccc(CN2CCC(F)(F)CC2)cc1)N1C[C@H](C)N(c2nc(=O)n(C)c3ccc(C#N)nc23)C[C@H]1C (stereo partly drawn) [Example 391, 4-((2S,5R)-4-(1-(4-((4,4-difluoropiperidin-1-yl)methyl)phenyl)ethyl)-2,5-dimethylpiperazin-1-yl)-1-methyl-2-oxo-1,2-dihydropyrido[3,2-d]pyrimidine-6-carbonitrile]
530 | 20000 | 730 | 460 | – | CCC(c1ccc(OC(C)C)cc1)N1C[C@H](C)N(c2nc(=O)n(C)c3ccc(C#N)nc23)C[C@H]1CC (stereo partly drawn) [Example 334, 4-((2 S,5R)-5-ethyl-4-(1-(4-isopropoxyphenyl)propyl)-2-methylpiperazin-1-yl)-1-methyl-2-oxo-1,2-dihydropyrido[3,2-d]pyrimidine-6-carbonitrile]
400 | 10900 | – | 360 | – | CC[C@H]1CN(C(C)c2ccc(C(F)(F)F)cc2)[C@H](CC)CN1c1nc(=O)n(C)c2ccc(C(F)F)nc12 (stereo partly drawn) [Example 439, 4-((2S,5R)-2,5-Diethyl-4-(1-(4-(trifluoromethyl)phenyl)ethyl)piperazin-1-yl)-6-(difluoromethyl)-1-methylpyrido[3,2-d]pyrimidin-2(1H)-one]
120 | 140 | – | 25 | – | CCC(c1ccc(OCCC(F)(F)F)cc1)N1C[C@H](C)N(c2nc(=O)n(C)c3ccc(C#N)nc23)C[C@H]1CC (single isomer, unassigned) [Example 335]
55 | 20000 | – | 33 | – | [2H]C([2H])([2H])n1c(=O)nc(N2C[C@@H](CC)N(C(C)c3ccc(C(F)(F)F)cc3)C[C@@H]2C)c2nc(C#N)ccc21 (single isomer, unassigned) [Example 419]
81100 | 7130 | – | 1960 | – | CC(c1ccc(C(F)(F)F)cc1)N1C[C@H](CO)N(c2nc(=O)n(C)c3ccc(C#N)nc23)C[C@H]1C (single isomer, unassigned) [Example 406]
950 | 1990 | – | 320 | – | CCC(c1ccc(OCc2nccs2)cc1)N1C[C@H](C)N(c2nc(=O)n(C)c3ccc(C#N)nc23)C[C@H]1CC (stereo partly drawn) [Example 347, 4-((2S,5R)-5-ethyl-2-methyl-4-(1-(4-(thiazol-2-ylmethoxy)phenyl)propyl)piperazin-1-yl)-1-methyl-2-oxo-1,2-dihydropyrido[3,2-d]pyrimidine-6-carbonitrile]
1240 | 190 | – | 1280 | – | CCC(c1ccc(OCC2(C)CC2)cc1)N1C[C@H](C)N(c2nc(=O)n(C)c3ccc(C#N)nc23)C[C@H]1CC (stereo partly drawn) [Example 346, 4-((2S,5R)-5-ethyl-2-methyl-4-(1-(4-((1-methylcyclopropyl)methoxy)phenyl)propyl)piperazin-1-yl)-1-methyl-2-oxo-1,2-dihydropyrido[3,2-d]pyrimidine-6-carbonitrile]
125000 | 3450 | – | 23500 | – | CC(c1ccc(CN2CC3(COC3)C2)cc1)N1C[C@H](C)N(c2nc(=O)n(C)c3ccc(C#N)nc23)C[C@H]1C (stereo partly drawn) [Example 393, 4-((2S,5R)-4-(1-(4-((2-oxa-6-azaspiro[3.3]heptan-6-yl)methyl)phenyl)ethyl)-2,5-dimethylpiperazin-1-yl)-1-methyl-2-oxo-1,2-dihydropyrido[3,2-d]pyrimidine-6-carbonitrile]
5570 | 20000 | – | 13600 | – | CCC(N1C[C@H](C)N(c2nc(=O)n(C)c3ccc(C#N)nc23)C[C@H]1C)C12CC(C(F)(F)F)(C1)C2 (stereo partly drawn) [Example 447, 4-((2S,5R)-2,5-dimethyl-4-(1-(3-(trifluoromethyl)bicyclo[1.1.1]pentan-1-yl)propyl)piperazin-1-yl)-1-methyl-2-oxo-1,2-dihydropyrido[3,2-d]pyrimidine-6-carbonitrile]
620 | 930 | – | 420 | – | CCC(c1ccc(F)c(F)c1)N1C[C@H](C)N(c2nc(=O)n(C)c3ccc(C#N)nc23)C[C@H]1CC (stereo partly drawn) [Example 320, 4-((2S,5R)-4-(1-(3,4-difluorophenyl)propyl)-5-ethyl-2-methylpiperazin-1-yl)-1-methyl-2-oxo-1,2-dihydropyrido[3,2-d]pyrimidine-6-carbonitrile]
21 | 670 | – | 520 | – | CC[C@@H]1CN(c2nc(=O)n(C)c3ccc(C#N)nc23)[C@@H](C)CN1C(c1ccc(OC(C)C)cc1)C(C)C (stereo partly drawn) [Example 323, 4-((2S,5R)-5-ethyl-4-(1-(4-isopropoxyphenyl)-2-methylpropyl)-2-methylpiperazin-1-yl)-1-methyl-2-oxo-1,2-dihydropyrido[3,2-d]pyrimidine-6-carbonitrile]
8710 | 20000 | – | 92 | – | [2H]C([2H])([2H])n1c(=O)nc(N2C[C@@H](CC)N(C(C)c3ccc(C(F)(F)F)cc3)C[C@@H]2C)c2nc(Cl)ccc21 (single isomer, unassigned) [Example 418]
